{
  "source": "patent US10899733B2",
  "about": "“Inhibitors of PARPs that catalyze mono-ADP-ribosylation” (OREGON HEALTH & SCIENCE UNIVERSITY, priority 2017, dated 2021)",
  "key": {"[1]": {"target": "T1, PARP10 (Homo sapiens, UniProt Q53GL7)", "T1 construct": "Human embryonic kidney (HEK) 293T cells expressing full-length PARP10; expressed in transfected cells; host or cells: HEK293T", "T1 sequence (Q53GL7 1-1025)": "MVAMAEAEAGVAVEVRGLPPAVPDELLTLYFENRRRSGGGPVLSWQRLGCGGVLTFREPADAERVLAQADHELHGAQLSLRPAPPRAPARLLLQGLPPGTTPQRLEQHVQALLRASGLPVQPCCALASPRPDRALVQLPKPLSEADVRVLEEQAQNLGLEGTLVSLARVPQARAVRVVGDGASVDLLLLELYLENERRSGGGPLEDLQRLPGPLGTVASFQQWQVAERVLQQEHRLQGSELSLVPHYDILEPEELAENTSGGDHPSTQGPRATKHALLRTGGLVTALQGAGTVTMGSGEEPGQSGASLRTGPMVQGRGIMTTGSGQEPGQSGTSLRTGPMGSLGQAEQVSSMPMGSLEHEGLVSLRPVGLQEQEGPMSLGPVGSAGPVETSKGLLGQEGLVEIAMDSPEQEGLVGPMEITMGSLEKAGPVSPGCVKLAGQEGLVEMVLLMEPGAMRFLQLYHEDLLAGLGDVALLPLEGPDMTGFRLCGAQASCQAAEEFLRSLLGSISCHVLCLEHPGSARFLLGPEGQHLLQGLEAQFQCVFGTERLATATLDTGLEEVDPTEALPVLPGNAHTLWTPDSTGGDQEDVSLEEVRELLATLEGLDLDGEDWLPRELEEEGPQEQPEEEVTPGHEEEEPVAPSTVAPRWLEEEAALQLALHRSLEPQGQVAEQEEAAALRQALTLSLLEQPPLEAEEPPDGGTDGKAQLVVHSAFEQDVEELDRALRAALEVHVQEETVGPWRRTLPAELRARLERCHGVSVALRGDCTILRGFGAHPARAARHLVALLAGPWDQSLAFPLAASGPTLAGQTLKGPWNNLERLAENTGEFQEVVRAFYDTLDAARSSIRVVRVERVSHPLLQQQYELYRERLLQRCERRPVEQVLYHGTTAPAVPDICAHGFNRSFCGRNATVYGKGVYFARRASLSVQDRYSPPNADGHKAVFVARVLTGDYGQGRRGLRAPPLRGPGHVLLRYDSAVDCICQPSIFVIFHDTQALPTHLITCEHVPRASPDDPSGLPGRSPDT", "assay": "PARP10-dependent ADP-ribosylation in HEK293T cells expressing GFP-PARP10, Western blot with ADP-ribose binding reagent", "type": "cell-based", "settings": "for EC50: GFP-PARP10, 22 at 1-100 μM for 3 h", "experimental": "We next determined if 22 could inhibit PARP10-dependent ADP-ribosylation in cells. […] Med. Chem. Lett. 25, pp. 4770-4773} Human embryonic kidney (HEK) 293T cells expressing full-length PARP10 were treated with increasing concentrations of 22 (1-100 μM). […] The EC50 value varies depending on the species quantified.\nHEK293T cells were transfected with GFP-PARP10 and incubated with increasing concentrations of 22 (1-100 μM) for 3 h. Lysates were prepared and auto-ADP-ribosylation of PARP10 and its high molecular weight (HMW) targets were analyzed with an ADP-ribose binding reagent (α-APDr) (FIG. 2B) Quantification of data shown in FIG. 2(a)."}, "[2]": {"target": "T2, PARP14cat-wwe (Homo sapiens, UniProt Q460N5)", "T2 construct": "PARP14cat-wwe", "T2 sequence (Q460N5 1523-1801)": "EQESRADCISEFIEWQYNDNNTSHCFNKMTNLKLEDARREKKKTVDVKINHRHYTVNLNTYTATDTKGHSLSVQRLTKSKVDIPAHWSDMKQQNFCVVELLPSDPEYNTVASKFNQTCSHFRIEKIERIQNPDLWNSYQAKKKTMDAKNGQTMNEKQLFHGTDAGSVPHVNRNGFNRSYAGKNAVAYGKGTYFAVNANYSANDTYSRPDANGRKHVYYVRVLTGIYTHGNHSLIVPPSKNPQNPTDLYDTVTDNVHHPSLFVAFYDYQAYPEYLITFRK", "assay": "PARP panel: ADP-ribosylation of SRPK2 using 6-a-NAD+", "type": "biochemical", "settings": "6-a-NAD+", "source_text": "(§1) We screened 22 against poly-ADPr PARPs (PARPs 1, 2, and PARP5b) and mono-ADPr PARPs (PARPs 3, 4, 10, 11, 14, and 15) in an assay that measures ADP-ribosylation of SRPK2 using an N^6-alkyne tagged NAD^+ (6-a-NAD^+), a clickable NAD^+ analogue.{Jiang et al., 2010, J. Am. Chem. Soc. […] The observed selectivity is most likely due to the differences in the last position of the H-Y-E catalytic triad of these enzymes versus the H-Y-I triad found in PARP10. {Hottiger et al., 2010, Trends Biochem. Sci. 35, pp. 208-219} The glutamate (E988 in PARP1) in PARPs 1-4 and PARP 5b most likely clash with the pyridiny-4-yl group at the 6-position of 22, while PARP10 contains an isoleucine (1978) at this position that can accommodate this group (FIG. 1B)."}, "[3]": {"system": "PARP14cat-wwe", "assay": "PARP panel: ADP-ribosylation of SRPK2 using 6-a-NAD+", "type": "biochemical", "settings": "PARP14cat-wwe over PARP10cat", "source_text": "as §1"}, "[4]": {"target": "T3, PARP4brct-cat (Homo sapiens, UniProt Q9UKK3)", "T3 construct": "PARP4brct-cat", "T3 sequence (Q9UKK3 whole entry)": "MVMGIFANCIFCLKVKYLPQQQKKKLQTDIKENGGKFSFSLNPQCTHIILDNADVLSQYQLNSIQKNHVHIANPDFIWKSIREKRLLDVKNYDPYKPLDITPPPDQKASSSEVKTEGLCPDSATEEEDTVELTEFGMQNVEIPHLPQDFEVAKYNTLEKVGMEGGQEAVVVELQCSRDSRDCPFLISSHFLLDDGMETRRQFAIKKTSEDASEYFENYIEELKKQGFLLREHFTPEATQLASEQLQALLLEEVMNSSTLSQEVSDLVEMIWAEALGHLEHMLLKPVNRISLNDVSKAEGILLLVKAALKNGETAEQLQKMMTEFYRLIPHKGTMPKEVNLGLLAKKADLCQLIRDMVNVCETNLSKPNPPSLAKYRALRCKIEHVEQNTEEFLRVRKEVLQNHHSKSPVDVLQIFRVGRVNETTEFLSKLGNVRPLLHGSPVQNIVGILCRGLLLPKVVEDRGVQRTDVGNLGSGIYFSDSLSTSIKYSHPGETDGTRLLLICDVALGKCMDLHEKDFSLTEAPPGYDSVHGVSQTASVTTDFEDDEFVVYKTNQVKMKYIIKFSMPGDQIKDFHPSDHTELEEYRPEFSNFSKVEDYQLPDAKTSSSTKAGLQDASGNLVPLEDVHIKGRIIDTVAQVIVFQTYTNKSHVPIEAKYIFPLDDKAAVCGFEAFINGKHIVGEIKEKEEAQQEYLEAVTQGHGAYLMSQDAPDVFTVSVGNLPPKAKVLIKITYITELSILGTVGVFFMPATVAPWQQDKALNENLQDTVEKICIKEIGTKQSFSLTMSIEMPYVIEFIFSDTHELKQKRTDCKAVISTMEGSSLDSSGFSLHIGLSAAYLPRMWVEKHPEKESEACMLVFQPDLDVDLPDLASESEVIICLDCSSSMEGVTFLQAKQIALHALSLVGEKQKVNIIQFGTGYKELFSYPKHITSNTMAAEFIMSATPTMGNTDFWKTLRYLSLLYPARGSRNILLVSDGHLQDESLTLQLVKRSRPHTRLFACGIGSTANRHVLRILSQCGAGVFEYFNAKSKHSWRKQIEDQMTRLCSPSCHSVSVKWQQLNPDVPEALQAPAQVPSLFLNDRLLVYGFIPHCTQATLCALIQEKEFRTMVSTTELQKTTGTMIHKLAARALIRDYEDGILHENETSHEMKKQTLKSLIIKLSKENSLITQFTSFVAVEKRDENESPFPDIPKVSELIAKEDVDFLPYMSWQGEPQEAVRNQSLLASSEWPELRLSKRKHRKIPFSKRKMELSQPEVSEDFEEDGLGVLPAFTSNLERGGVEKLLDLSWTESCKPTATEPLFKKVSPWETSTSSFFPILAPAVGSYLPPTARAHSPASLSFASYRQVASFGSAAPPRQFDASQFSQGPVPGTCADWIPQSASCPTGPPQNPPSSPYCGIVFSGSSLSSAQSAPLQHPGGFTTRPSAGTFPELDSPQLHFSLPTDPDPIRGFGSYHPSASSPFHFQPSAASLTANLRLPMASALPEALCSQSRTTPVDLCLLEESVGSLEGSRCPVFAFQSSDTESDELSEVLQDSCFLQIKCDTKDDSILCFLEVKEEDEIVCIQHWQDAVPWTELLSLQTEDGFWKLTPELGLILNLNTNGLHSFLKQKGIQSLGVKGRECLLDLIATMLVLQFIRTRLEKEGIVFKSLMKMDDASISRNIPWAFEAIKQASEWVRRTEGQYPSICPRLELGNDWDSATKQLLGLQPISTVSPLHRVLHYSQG", "assay": "PARP panel: ADP-ribosylation of SRPK2 using 6-a-NAD+", "type": "biochemical", "settings": "up to 100 μM", "source_text": "as §1"}, "[5]": {"system": "PARP4brct-cat", "assay": "PARP panel: ADP-ribosylation of SRPK2 using 6-a-NAD+", "type": "biochemical", "settings": "PARP4brct-cat over PARP10cat", "source_text": "as §1"}, "[6]": {"target": "T4, PARP5bcat (Homo sapiens, UniProt Q9H2K2)", "T4 construct": "PARP5bcat", "T4 sequence (Q9H2K2 959-1164)": "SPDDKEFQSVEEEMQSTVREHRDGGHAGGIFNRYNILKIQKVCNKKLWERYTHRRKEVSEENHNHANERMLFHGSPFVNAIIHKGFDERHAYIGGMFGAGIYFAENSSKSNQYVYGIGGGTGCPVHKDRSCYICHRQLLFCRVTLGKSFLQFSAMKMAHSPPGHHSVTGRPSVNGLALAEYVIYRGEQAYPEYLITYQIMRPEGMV", "assay": "PARP panel: ADP-ribosylation of SRPK2 using 6-a-NAD+", "type": "biochemical", "source_text": "as §1"}},
  "note": "Where two headings read alike, the source gives them in different places.",
  "data": [
    {"smiles": "Cc1c(-c2ccnc(C(F)(F)F)c2)ccc2c1CCNC2=O", "note": "[Compound 22, 5-methyl-6-(2-(trifluoromethyl)pyridin-4-yl)-3,4-dihydroisoquinolin-1(2H)-one]", "values": [
      {"measurement": "inhibition of auto-ADP-ribosylation of PARP10 and PARP10-labeled targets in cells", "setting": "[1]; 1-100 μM", "value": "dose-dependent manner"},
      {"measurement": "EC50", "setting": "[1]; read-out: EC50, PARP10 itself (auto-ADP-ribosylation)", "value": 11, "unit": "µM"},
      {"measurement": "EC50", "setting": "[1]; read-out: EC50, PARP10 targets (HMW species)", "value": 2.3, "unit": "µM"},
      {"measurement": "IC50", "setting": "[2]", "value": 60.5, "unit": "µM"},
      {"measurement": "PARP14cat-wwe pIC50 ± S.E.M.", "setting": "[2]", "value": "4.22 ± 0.04"},
      {"measurement": "PARP/PARP10", "setting": "[3]", "value": 22},
      {"measurement": "inhibition of PARP4", "setting": "[4]", "value": "does not inhibit"},
      {"measurement": "PARP/PARP10", "setting": "[5]", "value": ">37"},
      {"measurement": "IC50", "setting": "[6]; 6-a-NAD+", "value": "> 100", "unit": "µM"},
      {"measurement": "PARP/PARP10", "setting": "[6]; PARP5bcat over PARP10cat", "value": ">>37"},
      {"measurement": "inhibition of PARP 5b", "setting": "[6]; up to 100 μM", "value": "does not inhibit"}
    ]}
  ]
}
